Results from PubChem BioAssay (NCI).
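A five-concentration, 48-hour dose response in 96-well plates underlies each endpoint, interpolated linearly between surrounding concentrations. At the GI50, growth is halved. TGI: total growth inhibition.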

Experiments:
Experiment in all cases: NCI anticancer screen, dose series, 48 h
EKVX NSCLC = test system: EKVX NSCLC
HOP-92 NSCLC = test system: HOP-92 NSCLC
HS 578T breast = test system: HS 578T breast
IGROV1 ovarian = test system: IGROV1 ovarian
K-562 leukemia = test system: K-562 leukemia
PC-3 prostate = test system: PC-3 prostate
SF-268 CNS = test system: SF-268 CNS
SF-539 CNS = test system: SF-539 CNS
DMS 114 small cell lung = test system: DMS 114 small cell lung
HOP-18 NSCLC = test system: HOP-18 NSCLC

Structure (SMILES)	TGI (EKVX NSCLC) [µM]	TGI (HOP-92 NSCLC) [µM]	TGI (HS 578T breast) [µM]	TGI (IGROV1 ovarian) [µM]	TGI (K-562 leukemia) [µM]	TGI (PC-3 prostate) [µM]	TGI (SF-268 CNS) [µM]	TGI (SF-539 CNS) [µM]	TGI (DMS 114 small cell lung) [µM]	TGI (HOP-18 NSCLC) [µM]	GI50 (EKVX NSCLC) [µM]	GI50 (HOP-92 NSCLC) [µM]	GI50 (HS 578T breast) [µM]	GI50 (IGROV1 ovarian) [µM]	GI50 (K-562 leukemia) [µM]	GI50 (PC-3 prostate) [µM]	GI50 (SF-268 CNS) [µM]	GI50 (SF-539 CNS) [µM]
COC(NC(N)=O)C(=O)O (stereo unspecified)	> 100	> 100	> 100	> 100	> 100	> 100	> 100	> 100										
Cc1cc(Br)cc(C)c1NC(=O)C(=O)C(C(=O)c1ccncc1)C1OC(=O)c2ccccc21 (stereo unspecified)	> 100	> 100		> 100	> 100		> 100		> 100	> 100								
NC(=O)COc1c(Br)cc(Br)cc1Br	> 100				> 100		> 100	> 100	> 100									
C=C1C(=O)O[C@H]2[C@H]1CC/C(Cn1cc(Cc3c[nH]c4ccccc34)nn1)=C\CC[C@@]1(C)O[C@@H]21	3.98	3.75	18.3	3.84	6.14	3.81	3.27	3.35			1.84	2	3.88	1.92	1.81	1.88	1.7	1.76
O=C(O)CNc1ccc(Cl)c(Cl)c1	64.8	51.6	> 100	26.3	78.4	76	> 100	> 100										
CCOP(=O)(OCC)/C(C#N)=C\c1ccsc1	> 100	> 100					> 100	> 100	> 100	> 100								
O=C1NC(=O)C(=Cc2c3ccccc3cc3ccccc23)C(=O)N1		> 100		> 100	> 100		> 100	> 100		> 100								
O=C(O)C(Br)C(Br)C(=O)O (stereo unspecified)	> 100	> 100	> 100	> 100	> 100	> 100	> 100	> 100										
COc1cc2c(c(O)c1C)C(=O)CC(c1ccccc1)O2 (stereo unspecified)	> 100	40.8		> 100	> 100		> 100	> 100	> 100	> 100								
CCCCC[C@H]1CC=C2C(=O)C=C[C@@H]2CC=CCCCC(=O)O[C@@H](CCCCC)CC=C2C(=O)C=C[C@@H]2CC=CCCCC(=O)O[C@@H](CCCCC)CC=C2C(=O)C=C[C@@H]2CC=CCCCC(=O)O1	6.31	1.82	> 8.75	1.57	> 8.75	1.5	7.8	> 8.75			0.414	0.359	0.773	0.279	0.317	0.342	0.305	0.322
CCN(CC)CCC(=O)OC1C(C)=CC(C)C(=O)CC(C(C)CC2CCC(O)C(OC)C2)OC(=O)C2CCCCN2C(=O)C(=O)[C@@]2(O)OC(CCC2C)CC(OC)\C(C)=C/C=C/C=C/C(C)CC(C)C(=O)C1OC (stereo partly specified)	17.1	21.9	13.7	14.7	21.4	22.4	20.5	15.2										
COC1=CC(=O)C(Br)=CC1=O	44.8	29.8		31.1	9.1		33.8		35.5									
O=C1NC(=O)[C@@]2(CC[C@@H](O)C2)c2ccncc21	> 100	> 100	> 100	> 100	> 100	> 100	> 100	> 100										
CCCCCCCN(CCCCCCC)C(=N)c1ccnc2ccccc12	3.15	3	4.36	3.37	3.48	2.96	3.03	3.58			1.59	1.33	1.64	1.6	1.27	1.39	1.48	1.9
COc1cc2c3c(n(CCCCNC(=O)OC(C)(C)C)c(=O)c2cc1OC)-c1cc2c(cc1C3=O)OCO2	> 100	> 100	> 100	> 100	> 100	> 100	> 100	> 100			> 100	60.3	59	> 100	> 100	> 100	15.3	8.39
Cc1cc2c(c3nocc13)C(=O)c1ccccc1C2=O	> 100	> 100		> 100	> 100		> 100	> 100	> 100	> 100								
CN(C)CCNC(=O)c1cccc2nc3ccc4cccnc4c3nc12	2.07	1.99			13.4		3.13	1.1	2.12	6.66								
CCN(CCCl)CCCCCNc1c2ccccc2nc2ccc(OC)cc12	18.1	3.21		4.24	1.06		5.98	2.65	1.91									
CCNc1cc2oc(=O)cc(C(F)(F)F)c2cc1C	> 100	> 100	> 100	> 100	> 100	> 100	> 100	> 100										
Oc1[nH]c(N=C2N=c3ccccc3=N2)c2ccccc12	52.2	49	39.8	33.7	> 100	73.8	50.8	40.2			4.22	15	10.7	1.28	9.86	6.34	11.6	14.3
CCn1c(-c2c(Cl)cc(O)cc2Cl)cc2c(Cl)cc(O)cc21	58.5	59.4	> 100	12.9	> 100	> 100	16.1	23.2										
